Data as given in US20180333399A1, “METHOD OF IMPROVING LIVER FUNCTION” (NAIA METABOLIC, INC., priority 2012, published 2018).
Marks after values point to notes of the source that are not given here.

Tests used:
db/db mice [1] = experiment: Hepatic lipid content (modified Folch extraction) in db/db mice; type: in vivo
Procedure: (§1) All reagents were purchased from Sigma-Aldrich (Australia). Dosing solutions of methazolamide were prepared fresh daily in sterile saline:PEG400 at 65:35 (v/v), protected from light and stored at room temperature. Male db/db mice (Animal Resource Centre, Australia) were housed with free access to water and food (standard rodent diet: Barastoc Rat & Mouse, Ridley Agriproducts, Australia). Room temperature was maintained at 21±2° C., humidity 40-70%, with a 12 h light/dark cycle. Mice were treated with methazolamide (50 mg/kg/day) or vehicle (n=4 per group) by single oral gavage doses each day for 9 days.
A separate portion of the liver (right lobe) was used to measure hepatic lipid content. Lipid was extracted using a modified Folch protocol. The tissue was homogenised in 2:1 chloroform/methanol solution (10 ml), and filtered into a […] glass centrifuge tube. An additional 5 ml of 2:1 chloroform/methanol solution was added, followed by 2.5 ml of 0.9% NaCl. After thorough mixing, the extract was centrifuged for 5 min at 2,000 g at 10° C. After discarding the aqueous layer, the organic layer was dried under nitrogen, and total lipid content was assessed by weighing.

db/db mice [2] = experiment: Fasting blood glucose in db/db mice, 9 days oral gavage; type: in vivo
Procedure: as §1
(§2) Daily blood samples were obtained from the tail tip of each mouse and glucose levels measured using a glucometer (AccuCheck II; Roche, Australia). At the end of the study, the animals were humanely killed and a portion of liver tissue (left lobe) was removed and fixed in 10% neutral-buffered formalin. The liver tissue was paraffin-embedded, sectioned (5 μm), mounted and stained with hematoxylin and eosin.

db/db mice [3] = experiment: Liver histology (hematoxylin and eosin) in db/db mice; type: in vivo; conditions: after 9 days, 50 mg/kg/day; 3 of the 4 vehicle-treated animals had a high degree of hepatic steatosis
Procedure: as §1, §2

type 2 diabetes patients = experiment: 24 week randomised, placebo-controlled double-blind clinical trial: blood ALT levels; type: in vivo, human; conditions: for ΔALT Week 12, Mean ± SD / ΔALT Week 12, Median (range): change from baseline (Day 0) to Week 12; for ΔALT Week 12, Mean ± SD / ΔALT Week 12, Median (range) / ΔALT Week 24, Mean ± SD / ΔALT Week 24, Median (range): 40 mg b.i.d.; for ΔALT Week 24, Mean ± SD / ΔALT Week 24, Median (range): change from baseline (Day 0) to Week 24; for ΔALT Week 12, MTZ-Placebo / ΔALT Week 24, MTZ-Placebo: difference of mean ΔALT versus matching placebo group
Excerpt: The primary efficacy endpoint for the clinical trial was a reduction in HbA1c (ΔHbA1c) from baseline with methazolamide, relative to placebo, after 24 weeks of treatment. The primary safety measurement was the effect of methazolamide, compared to placebo, on venous blood gas parameters; a measure of acidosis. The clinical trial initially enrolled type 2 diabetes patients who were not treated with any anti-diabetic agent prior to entry into the trial. […] The metformin dose was not altered throughout the trial. Participant baseline demographic data are provided in Table 1-1, Participants randomized into the clinical trial were administered either daily doses of methazolamide (40 mg b.i.d.) or placebo for 24 weeks. Methazolamide was taken as 1×30 mg capsule and 1×10 mg capsule per dose at breakfast and dinner. Placebo (microcrystalline cellulose) was administered in identical presentation. […] Mean ALT levels over time are depicted in FIGS. 1(A) and 1(B).

[4] = Week 12, methazolamide 40 mg b.i.d., listed as All MTZ (Alone + Met)
[5] = methazolamide 40 mg b.i.d., listed as All MTZ (Alone + Met)
[6] = methazolamide 40 mg b.i.d., listed as MTZ Alone
[7] = baseline (Day 0), before treatment, type 2 diabetes patients, listed as MTZ Alone
[8] = listed as All MTZ (Alone + Met)

With `CC(=O)/N=c1/sc(S(N)(=O)=O)nn1C` [methazolamide] the “Liver lipid content (% of liver weight), Day 9” value (db/db mice [1]; Day 9, 50 mg/kg/day oral gavage, p < 0.05 vs vehicle) was 7.4 ± 1.2%, the “liver lipid content (w/w) lower compared to vehicle treated controls” value (db/db mice [1]; after 9 days of treatment, db/db mice) was 48% and the “Fasting Blood Glucose, Day 0” value (db/db mice [2]; Day 0 (baseline), male db/db mice, n=4) was 26.0 ± 1.2 mM. For the same compound, the “Fasting Blood Glucose, Day 9” value (db/db mice [2]; Day 9, 50 mg/kg/day oral gavage, p < 0.05 vs Day 0) was 13.7 ± 2.4 mM, the “reduction of fasting blood glucose levels relative to vehicle treated-controls” value (db/db mice [2]; db/db mice, 50 mg/kg/day, 9 days) was 47% and the “treated db/db mice that appeared to have greatly reduced hepatic steatosis (liver histology)” value (db/db mice [3]) was 2 of the 4. For the same compound, the “ALT Week 12, Mean ± SD” value (type 2 diabetes patients; [4]) was 20.9 ± 9.8 U/L, the “ALT Week 12, Median (range)” value (type 2 diabetes patients; [4]) was 19 (8-50) U/L and the “ALT Week 12, Mean ± SD” value (type 2 diabetes patients; Week 12, methazolamide 40 mg b.i.d., listed as MTZ Alone) was 22.1 ± 10.1 U/L. The “ALT Week 24, Mean ± SD” value (type 2 diabetes patients; [5]) was 21.3 ± 12.3 U/L, the “ALT Week 24, Median (range)” value (type 2 diabetes patients; [5]) was 20 (7-64) U/L and the “ALT Week 24, Mean ± SD” value (type 2 diabetes patients; [6]) was 22.0 ± 12.6 U/L. For the same compound, the “ALT Week 24, Median (range)” value (type 2 diabetes patients; [6]) was 17 (9-49) U/L, the “ALT Day 0, Median (range)” value (type 2 diabetes patients; baseline (Day 0), before treatment, type 2 diabetes patients, listed as All MTZ (Alone + Met)) was 27.5 (16-83) U/L and the “ALT Day 0, Mean ± SD” value (type 2 diabetes patients; [7]) was 33.1 ± 16.9 U/L. The “ALT Day 0, Median (range)” value (type 2 diabetes patients; [7]) was 29 (16-83) U/L, the “ΔALT Week 12, Mean ± SD” value (type 2 diabetes patients; [8]) was −10.9 ± 7.7 and the “ΔALT Week 12, Median (range)” value (type 2 diabetes patients; [8]) was −9 (−40, −2). For the same compound, the “ΔALT Week 12, Mean ± SD” value (type 2 diabetes patients; listed as MTZ Alone) was −10.4 ± 9.3, the “ΔALT Week 12, Median (range)” value (type 2 diabetes patients; listed as MTZ Alone) was −8.5 (−40, −4) and the “ΔALT Week 24, Mean ± SD” value (type 2 diabetes patients; [8]) was −10.7 ± 8.2. The “ΔALT Week 24, Median (range)” value (type 2 diabetes patients; [8]) was −8.5 (−34, +4), the “ΔALT Week 24, Mean ± SD” value (type 2 diabetes patients; listed as MTZ Alone) was −11.0 ± 8.1 and the “ΔALT Week 24, Median (range)” value (type 2 diabetes patients; listed as MTZ Alone) was −8 (−34, −3). The “ΔALT Week 12, MTZ-Placebo” value (type 2 diabetes patients; Week 12, listed as All MTZ (Alone + Met)) was −14.8*^§, the “ΔALT Week 12, MTZ-Placebo” value (type 2 diabetes patients; Week 12, listed as MTZ Alone) was −18.1 and the “ΔALT Week 24, MTZ-Placebo” value (type 2 diabetes patients; [8]) was −9.3^†§. The “ΔALT Week 24, MTZ-Placebo” value (type 2 diabetes patients; listed as MTZ Alone) was −8.0, the “time of treatment after which reduction in blood ALT levels was evident” value (type 2 diabetes patients; patients treated with methazolamide) was 1 week and the “time of treatment after which reduced ALT level reached a plateau” value (type 2 diabetes patients; plateau maintained for the remainder of the 24 week treatment period) was 2 weeks.
